# Laboratory results published in publication PMC8279414, “Discovery and Synthesis of a Pyrimidine-Based Aurora Kinase Inhibitor to Reduce Levels of MYC Oncoproteins” (Journal of Medicinal Chemistry, 2021).
# What was measured:
# [1] = system: cMYC in NCI-H82; assay: Western blot analysis of cMYC protein level in NCI-H82 cells; type: cell-based; details: 24 h; for effect on cMYC protein level in NCI-H82: various concentrations; for NCI-H82 cMYC, relative protein level: 1.0 μM of compound, mean ± SD, triplicate
# Procedure: (§1) Cancer cells were treated with each of the compounds at different compound concentrations. […] Each lysate was separated by sodium dodecyl sulfate polyacrylamide gel electrophoresis (SDS-PAGE), transferred to polyvinylidene fluoride (PVDF, Millipore, USA) membrane, and blotted with antibodies. […] After the blotting (0.2% casein, 1% BSA, or 5% nonfat milk), membranes were washed with blotting buffer (0.2% casein in 1× PBS or 1× TBST), and corresponding alkaline phosphatase (AP)- or horseradish peroxidase (HRP)-conjugated secondary antibodies (Sigma-Aldrich) were added. The blots were developed by chemiluminescence (PerkinElmer, USA).
# [2] = target: T1, human Aurora A (amino acids 123–401) (Homo sapiens, UniProt O14965); assay: In vitro inhibition of Aurora A kinase activity (Kinase-Glo Plus Luminescent Kinase assay, ATP consumption); type: biochemical; details: for IC50: mean of 2–3 independent determinations ± SD, >100 = inhibition < 50% at 100 nM
# T1 construct: N-terminal truncated human Aurora A (amino acids 123–401); GST; made in house; host or cells: Sf9 insect cells
# T1 sequence (O14965 123-401): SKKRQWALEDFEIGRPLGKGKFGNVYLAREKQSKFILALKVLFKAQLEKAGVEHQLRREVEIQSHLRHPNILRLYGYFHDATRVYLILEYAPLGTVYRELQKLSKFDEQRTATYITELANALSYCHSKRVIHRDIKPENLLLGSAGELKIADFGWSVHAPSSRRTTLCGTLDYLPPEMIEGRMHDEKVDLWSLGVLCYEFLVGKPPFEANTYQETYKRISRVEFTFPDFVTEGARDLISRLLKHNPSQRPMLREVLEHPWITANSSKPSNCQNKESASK
# Procedure: The inhibitory potency of the newly synthesized small molecules against Aurora A was first measured in ATP consumption assays using purified Aurora A protein.
# The efficacy of the compounds as inhibitors of Aurora A kinase was assessed in vitro using the Kinase-Glo Plus Luminescent Kinase assay (Promega, USA), as described previously.[45] […] The resulting mixture was incubated at 25 °C for 20 min. A 70 μL aliquot of the mixture was transferred to a black microtiter plate.
# [3] = system: MYCN in SK-N-BE(2); assay: Western blot analysis of MYCN protein level in SK-N-BE(2) cells; type: cell-based; details: 1.0 μM of compound, 24 h, mean ± SD, triplicate
# Procedure: as §1
Structure (SMILES),IC50 [2] [nM],reduction of Aurora A inhibitory potency versus 13 [2],effect on cMYC protein level in NCI-H82 [1],"NCI-H82 cMYC, relative protein level [1]","SK-N-BE(2) MYCN, relative protein level [3]"
"CCN(CCCOc1ccc2c(Nc3cc(CC(=O)Nc4cccc(F)c4)[nH]n3)ncnc2c1)CCOP(=O)(O)O [AZD1152, reference compound]",–,–,limited effect,–,–
"CCN1CCN(C(=O)Cc2ccc(Nc3ncc(F)c(Nc4ccc(C(=O)Nc5ccccc5Cl)cc4)n3)cc2)CC1 [Aurora A inhibitor I, reference compound]",–,–,limited effect,–,–
"CCN1CCN(c2cc(Nc3cc(C)[nH]n3)nc(N[C@H]3CCN(C(=O)c4ccc(Cl)cc4C)C3)n2)CC1 [Compound 9, (S)-(4-Chloro-2-methylphenyl) (3-((4-(4-ethylpiperazin-1-yl)-6-((5-methyl-1H-pyrazol-3-yl)amino)pyrimidin-2-yl)amino)pyrrolidin-1-yl)methanone]",64.9 ± 8.5,–,–,0.984 ± 0.052,1.057 ± 0.312
"CCN1CCN(c2cc(Nc3cc(C)[nH]n3)nc(N[C@H]3CCN(C(=O)c4ccc(Cl)c(C)c4)C3)n2)CC1 [Compound 11, (S)-(4-Chloro-3-methylphenyl) (3-((4-(4-ethylpiperazin-1-yl)-6-((5-methyl-1H-pyrazol-3-yl)amino)pyrimidin-2-yl)amino)pyrrolidin-1-yl)methanone]",58.1 ± 7.4,–,–,1.050 ± 0.060,1.030 ± 0.256
"CCN1CCN(c2cc(Nc3cc(C)[nH]n3)nc(N[C@H]3CCN(C(=O)c4ccc(C(F)(F)F)cc4F)C3)n2)CC1 [Compound 14, (S)-(3-((4-(4-Ethylpiperazin-1-yl)-6-((5-methyl-1H-pyrazol-3-yl)amino)pyrimidin-2-yl)amino)pyrrolidin-1-yl) (2-fluoro-4-(trifluoromethyl)phenyl)methanone]",> 100,–,–,–,–
"CCN1CCN(c2cc(Nc3cc(C)[nH]n3)nc(N[C@H]3CCN(C(=O)c4c(F)cc(Cl)cc4F)C3)n2)CC1 [Compound 15, (S)-(4-Chloro-2,6-difluorophenyl) (3-((4-(4-ethylpiperazin-1-yl)-6-((5-methyl-1H-pyrazol-3-yl)amino)pyrimidin-2-yl)amino)pyrrolidin-1-yl)methanone]",56.7 ± 3.9,–,–,1.153 ± 0.158,0.757 ± 0.121
"CCN1CCN(c2cc(Nc3cc(C)[nH]n3)nc(N[C@H]3CCN(C(=O)c4cc(F)c(Cl)c(F)c4)C3)n2)CC1 [Compound 18, (S)-(4-Chloro-3,5-difluorophenyl) (3-((4-(4-ethylpiperazin-1-yl)-6-((5-methyl-1H-pyrazol-3-yl)amino)pyrimidin-2-yl)amino)pyrrolidin-1-yl)methanone]",> 100,–,–,–,–
"CCN1CCN(c2cc(Nc3cc(C)[nH]n3)nc(N[C@H]3CCN(C(=O)c4cc(F)c(F)cc4F)C3)n2)CC1 [Compound 19, (S)-(3-((4-(4-Ethylpiperazin-1-yl)-6-((5-methyl-1H-pyrazol-3-yl)amino)pyrimidin-2-yl)amino)pyrrolidin-1-yl) (2,4,5-trifluorophenyl)methanone]",> 100,–,–,–,–
"CCN1CCN(c2cc(Nc3cc(C)[nH]n3)nc(N[C@H]3CCN(C(=O)c4ccc(Cl)nc4F)C3)n2)CC1 [Compound 20, (S)-(6-Chloro-2-fluoropyridin-3-yl) (3-((4-(4-ethylpiperazin-1-yl)-6-((5-methyl-1H-pyrazol-3-yl)amino)pyrimidin-2-yl)amino)pyrrolidin-1-yl)methanone]",> 100,more than 2.5 fold,–,–,–
"CCN1CCN(c2cc(Nc3cc(C)[nH]n3)nc(N[C@H]3CCN(S(=O)(=O)c4ccc(Cl)cc4F)C3)n2)CC1 [Compound 21, (S)-N^2-(1-((4-Chloro-2-fluorophenyl)sulfonyl)pyrrolidin-3-yl)-6-(4-ethylpiperazin-1-yl)-N^4-(5-methyl-1H-pyrazol-3-yl)pyrimidine-2,4-diamine]",> 100,more than 2.5 fold,–,–,–

# More lines, main results first:
IC50 [2] [nM],reduction of Aurora A inhibitory potency versus 13 [2],Structure (SMILES),effect on cMYC protein level in NCI-H82 [1],"NCI-H82 cMYC, relative protein level [1]","SK-N-BE(2) MYCN, relative protein level [3]"
24.1 ± 7.9,–,"CCN1CCN(c2cc(Nc3cc(C)[nH]n3)nc(N[C@H]3CCN(C(=O)c4cccc(Cl)c4F)C3)n2)CC1 [Compound 1, (S)-(3-Chloro-2-fluorophenyl) (3-((4-(4-ethylpiperazin-1-yl)-6-((5-methyl-1H-pyrazol-3-yl)amino)pyrimidin-2-yl)amino)pyrrolidin-1-yl)methanone]",–,0.781 ± 0.015,–
25.7 ± 4.9,–,"Cc1cc(Nc2cc(N3CCN(C)CC3)nc(N[C@H]3CCN(C(=O)c4cccc(Cl)c4F)C3)n2)n[nH]1 [Compound 2, (S)-(3-Chloro-2-fluorophenyl) (3-((4-((5-methyl-1H-pyrazol-3-yl)amino)-6-(4-methylpiperazin-1-yl)pyrimidin-2-yl)amino)pyrrolidin-1-yl)methanone]",–,–,–
29.8 ± 2.5,–,"Cc1cc(Nc2cc(N3CC(N(C)C)C3)nc(N[C@H]3CCN(C(=O)c4cccc(Cl)c4F)C3)n2)n[nH]1 [Compound 3, (S)-(3-Chloro-2-fluorophenyl) (3-((4-(3-(dimethylamino)azetidin-1-yl)-6-((5-methyl-1H-pyrazol-3-yl)amino)pyrimidin-2-yl)amino)pyrrolidin-1-yl)methanone]",–,–,–
29.8 ± 0.7,–,"Cc1cc(Nc2cc(N3CC[C@H](N(C)C)C3)nc(N[C@H]3CCN(C(=O)c4cccc(Cl)c4F)C3)n2)n[nH]1 [Compound 4, (3-Chloro-2-fluorophenyl) ((S)-3-((4-((S)-3-(dimethylamino)pyrrolidin-1-yl)-6-((5-methyl-1H-pyrazol-3-yl)amino)pyrimidin-2-yl)amino)pyrrolidin-1-yl)methanone]",–,–,–
40.8 ± 2.8,–,"Cc1cc(Nc2cc(N(C)CCN(C)C)nc(N[C@H]3CCN(C(=O)c4cccc(Cl)c4F)C3)n2)n[nH]1 [Compound 5, (S)-(3-Chloro-2-fluorophenyl) (3-((4-((2-(dimethylamino)ethyl) (methyl)amino)-6-((5-methyl-1H-pyrazol-3-yl)amino)pyrimidin-2-yl)amino)pyrrolidin-1-yl)methanone]",–,–,–
29 ± 6.7,–,"CCN1CCN(c2cc(Nc3cc(C)[nH]n3)nc(N[C@H]3CCN(C(=O)c4ccccc4)C3)n2)CC1 [Compound 6, (S)-(3-((4-(4-Ethylpiperazin-1-yl)-6-((5-methyl-1H-pyrazol-3-yl)amino)pyrimidin-2-yl)amino)pyrrolidin-1-yl) (phenyl)methanone]",–,–,–
42.9 ± 2.6,–,"CCN1CCN(c2cc(Nc3cc(C)[nH]n3)nc(N[C@H]3CCN(C(=O)c4ccc(Cl)cc4)C3)n2)CC1 [Compound 7, (S)-(4-Chlorophenyl) (3-((4-(4-ethylpiperazin-1-yl)-6-((5-methyl-1H-pyrazol-3-yl)amino)pyrimidin-2-yl)amino)pyrrolidin-1-yl)methanone]",–,0.887 ± 0.050,0.889 ± 0.067
48.2 ± 9.7,–,"CCN1CCN(c2cc(Nc3cc(C)[nH]n3)nc(N[C@H]3CCN(C(=O)c4ccc(Cl)cc4Cl)C3)n2)CC1 [Compound 8, (S)-(2,4-Dichlorophenyl) (3-((4-(4-ethylpiperazin-1-yl)-6-((5-methyl-1H-pyrazol-3-yl)amino)pyrimidin-2-yl)amino)pyrrolidin-1-yl)methanone]",–,1.175 ± 0.124,1.000 ± 0.035
52.2 ± 8.1,–,"CCN1CCN(c2cc(Nc3cc(C)[nH]n3)nc(N[C@H]3CCN(C(=O)c4ccc(Cl)c(F)c4)C3)n2)CC1 [Compound 10, (S)-(4-Chloro-3-fluorophenyl) (3-((4-(4-ethylpiperazin-1-yl)-6-((5-methyl-1H-pyrazol-3-yl)amino)pyrimidin-2-yl)amino)pyrrolidin-1-yl)methanone]",–,0.715 ± 0.048,0.578 ± 0.135
45.8 ± 1.4,–,"CCN1CCN(c2cc(Nc3cc(C)[nH]n3)nc(N[C@H]3CCN(C(=O)c4cc(Cl)ccc4F)C3)n2)CC1 [Compound 12, (S)-(5-Chloro-2-fluorophenyl) (3-((4-(4-ethylpiperazin-1-yl)-6-((5-methyl-1H-pyrazol-3-yl)amino)pyrimidin-2-yl)amino)pyrrolidin-1-yl)methanone]",–,0.559 ± 0.119,0.734 ± 0.104
